Reference: ChEMBL document CHEMBL4616676, “Synthesis and Biological Activity of 2,22-Dimethylene Analogues of 19-Norcalcitriol and Related Compounds” (J Med Chem, 2020)
The source made the active and inactive calls. The calls are words filed in the database; no cut-off is given here.

What was measured:
Rattus norvegicus [1] = test: Induction of bone calcium mobilization in vitamin D-deficient Sprague-Dawley rat assessed as serum calcium level at 780 pmol, ip administered as 4 consecutive daily doses measured after 24 hrs post last dose by spectrometry relative to 1alpha,25-(OH)2D3; assay type: functional, organism-based
Rattus norvegicus [2] = test: Induction of bone calcium mobilization in vitamin D-deficient Sprague-Dawley rat assessed as serum calcium level at 87 pmol, ip administered as 4 consecutive daily doses measured after 24 hrs post last dose by spectrometry relative to 1alpha,25-(OH)2D3; assay type: functional, organism-based
[3] = molecular target: T1, Vitamin D3 receptor (Rattus norvegicus) (UniProt P13053); test: Potency index, ratio of ED50 for 1-alpha,25-(OH)2D3 to ED50 for test compound for agonist activity at rat recombinant full length VDR expressed in rat ROS 17/2.8 cells transfected with 24-hydroxylase gene promoter assessed as transcriptional activation after 16 hrs by luciferase reporter gene assay; assay type: cell-based
T1 sequence (whole entry): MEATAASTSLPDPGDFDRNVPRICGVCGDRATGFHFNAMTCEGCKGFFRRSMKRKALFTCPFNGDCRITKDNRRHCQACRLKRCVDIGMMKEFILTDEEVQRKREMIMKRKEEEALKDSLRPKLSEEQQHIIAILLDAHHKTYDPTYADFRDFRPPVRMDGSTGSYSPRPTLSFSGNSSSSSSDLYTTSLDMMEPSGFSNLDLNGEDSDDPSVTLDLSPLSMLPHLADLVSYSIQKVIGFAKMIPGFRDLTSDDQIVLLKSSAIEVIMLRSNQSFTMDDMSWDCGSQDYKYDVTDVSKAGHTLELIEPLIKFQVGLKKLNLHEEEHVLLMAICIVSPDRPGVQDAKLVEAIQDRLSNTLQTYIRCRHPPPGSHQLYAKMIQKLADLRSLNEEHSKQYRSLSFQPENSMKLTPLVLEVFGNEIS

[4] = molecular target: T1, Vitamin D3 receptor (Rattus norvegicus); test: Potency index, ratio of Ki for 1-alpha,25-(OH)2D3 to Ki for test compound for displacement of [3H]1-alpha,25-(OH)2D3 from rat recombinant full length VDR
[5] = molecular target: T2, Vitamin D3 receptor (Homo sapiens) (UniProt P11473); test: Potency index, ratio of ED50 for 1-alpha,25-(OH)2D3 to ED50 for test compound for agonist activity at VDR in human HL60 cells assessed as induction of cell differentiation of promyelocytes to monocytes after 4 days by NBT reduction assay; assay type: cell-based; conditions: HL-60
T2 sequence (whole entry): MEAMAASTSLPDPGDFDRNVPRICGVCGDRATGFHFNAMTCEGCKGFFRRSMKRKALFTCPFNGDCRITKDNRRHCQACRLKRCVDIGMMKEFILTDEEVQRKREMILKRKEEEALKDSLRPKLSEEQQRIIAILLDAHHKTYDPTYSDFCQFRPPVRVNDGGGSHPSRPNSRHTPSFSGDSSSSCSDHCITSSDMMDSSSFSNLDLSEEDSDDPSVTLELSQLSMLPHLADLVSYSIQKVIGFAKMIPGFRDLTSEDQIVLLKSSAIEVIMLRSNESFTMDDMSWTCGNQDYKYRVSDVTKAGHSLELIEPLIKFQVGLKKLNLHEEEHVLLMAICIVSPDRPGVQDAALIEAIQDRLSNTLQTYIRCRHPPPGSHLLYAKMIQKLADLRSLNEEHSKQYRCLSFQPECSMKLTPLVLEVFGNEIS

Rattus norvegicus [6] = test: Induction of intestinal calcium transport in vitamin D-deficient Sprague-Dawley rat assessed as ratio of serosal to mucosal calcium level at 87 pmol, ip administered as 4 consecutive daily doses measured after 24 hrs post last dose by gut sac assay relative to 1alpha,25-(OH)2D3; assay type: functional, organism-based
Rattus norvegicus [7] = test: Induction of intestinal calcium transport in vitamin D-deficient Sprague-Dawley rat assessed as ratio of serosal to mucosal calcium level at 780 pmol, ip administered as 4 consecutive daily doses measured after 24 hrs post last dose by gut sac assay relative to 1alpha,25-(OH)2D3; assay type: functional, organism-based

`C=C1[C@H](O)CC(=C/C=C2\CCC[C@]3(C)[C@@H]([C@@H](C)C(=C)CCCC(O)(CC)CC)CC[C@@H]23)C[C@H]1O` was tested, and the Activity (Rattus norvegicus [1]) was “Active”, the Activity (Rattus norvegicus [2]) was “Active” and the Ratio ED50 [3] was 6.7. For the same compound, the Ratio Ki [4] was 0.5, the Ratio ED50 [5] was 50 and the Activity (Rattus norvegicus [6]) was “Active”. For the same compound, the Activity (Rattus norvegicus [7]) was “Active”.

In the case of `C=C1[C@H](O)CC(=C/C=C2\CCC[C@]3(C)[C@@H]([C@@H](C)C(=C)CCC(O)(CC)CC)CC[C@@H]23)C[C@H]1O`, the Activity (Rattus norvegicus [1]) is reported as “Active”, the Activity (Rattus norvegicus [2]) is reported as “Active” and the Ratio ED50 [3] is reported as 6.7. For the same compound, the Ratio Ki [4] was 1, the Ratio ED50 [5] was 10 and the Activity (Rattus norvegicus [6]) was “Active”. For the same compound, the Activity (Rattus norvegicus [7]) was “Active”.

`C=C1[C@H](O)CC(=C/C=C2\CCC[C@]3(C)[C@@H]([C@@H](C)C(=C)CCC(C)C)CC[C@@H]23)C[C@H]1O` was tested, and the Activity (Rattus norvegicus [1]) was “Active”, the Activity (Rattus norvegicus [2]) was “Active” and the Ratio ED50 [3] was 0.05. For the same compound, the Ratio Ki [4] was 0.01, the Ratio ED50 [5] was 0.1 and the Activity (Rattus norvegicus [6]) was “Active”. The Activity (Rattus norvegicus [7]) was “Active”.

`C=C1[C@H](O)CC(=C/C=C2\CCC[C@]3(C)[C@@H]([C@@H](C)C(=C)CCC4(O)CCCC4)CC[C@@H]23)C[C@H]1O` was tested, and the Activity (Rattus norvegicus [1]) was “Active”, the Activity (Rattus norvegicus [2]) was “Active” and the Ratio ED50 [3] was 20. The Ratio Ki [4] was 1, the Ratio ED50 [5] was 29 and the Activity (Rattus norvegicus [6]) was “Active”. For the same compound, the Activity (Rattus norvegicus [7]) was “Active”.

For `C=C1[C@H](O)CC(=C/C=C2\CCC[C@]3(C)[C@@H]([C@@H](C)C(=C)CCCC(C)(C)O)CC[C@@H]23)C[C@H]1O`, the Activity (Rattus norvegicus [1]) was “Active”, the Activity (Rattus norvegicus [2]) was “Active” and the Ratio ED50 [3] was 20. The Ratio Ki [4] was 1, the Ratio ED50 [5] was 50 and the Activity (Rattus norvegicus [6]) was “Active”. For the same compound, the Activity (Rattus norvegicus [7]) was “Active”.

With `C=C1[C@H](O)CC(=C/C=C2\CCC[C@]3(C)[C@@H]([C@@H](C)C(=C)CCC(C)(C)O)CC[C@@H]23)C[C@H]1O` the Activity (Rattus norvegicus [1]) was “Active”, the Activity (Rattus norvegicus [2]) was “Active” and the Ratio ED50 [3] was 2.5. The Ratio Ki [4] was 0.5, the Ratio ED50 [5] was 4 and the Activity (Rattus norvegicus [6]) was “Active”. For the same compound, the Activity (Rattus norvegicus [7]) was “Active”.

`C=C1[C@H](O)CC(=C/C=C2\CCC[C@]3(C)[C@@H]([C@@H](C)CCCC(C)(C)O)CC[C@@H]23)C[C@H]1O` was tested, and the Ratio ED50 [3] was 29, the Ratio Ki [4] was 1 and the Ratio ED50 [5] was 25.
